Data taken from patent US20210277399A1, “Methods of Imaging and Tracking Nucleic Acids in Cells” (Emory University, priority 2020, published 2021).

Assays:
Neuro-2a cells [1] = assay: Live cell imaging of mRNA in stress granules; type: cell-based, Mouse
Description: Experiments were performed to determine whether the MGD2/MGA system would be suitable for live cell imaging of endogenous mRNA localization and dynamics. Moreover, experiments were performed to determine whether one could simultaneously track the real-time localization properties of both RNA and proteins within a living cell. For this assay, Neuro-2a cells were co-transfected with expression plasmids for 1×MGA-mCDK6 and dual GFP-tagged G3BP1 protein. The expressed mRNA was labeled with MGD2 and photo crosslinked. The cells were then imaged to record the spatiotemporal features of both mRNA and protein in stress granules. […] Monitoring the signal intensity, the fluorescent signal generated from the MGD2 labeled granules was observed and remained consistent over >25 min of imaging.
After observing the motility and maturation of the granules, experiments were performed to determine whether one could also observe their dissolution. In mammalian cells, stress granules disassemble in the presence of small aliphatic molecules that disrupt weak hydrophobic interactions. Therefore, 1,6-hexanediol, an aliphatic alcohol commonly used for disassembly of stress granules was added. After arsenite-induced stress granule formation, the cells were incubated in 5% 1,6-hexanediol solution. The fluorescence signal of the labeled 1×MGA-mCDK6 was observed. […]

1×MGA-mGFP = assay: In vitro fluorescence enhancement of MGD2 with 1×MGA-mGFP mRNA; type: binding
Description: (§1) AcGFP mRNA appended with one or six copies of the aptamer sequence at the 5′ end, referred to as 1×MGA-mGFP and 6×MGA-mGFP, respectively, was transcribed.
(§2) The effect of UV-irradiation on the fluorescence enhancement was investigated.
(§3) A solution of 30 μM of MGD2 was mixed with 4 μM of the corresponding mRNA in 1×PBS (1.54 mM potassium monobasic, 155.17 mM sodium chloride, and 2.71 mM sodium phosphate dibasic with pH=7.2) and incubated at room temperature for 20 min. For comparison, a solution of MGD2 without any RNA was also prepared in 1×PBS. The fluorescence of these solutions was measured using a BioTek Cytation™ 5 plate reader with ex=620±20 nm and em=680±20 nm. The average fluorescence value from replicate experiments was used to calculate fluorescence enhancement.

6×MGA-mGFP = assay: In vitro fluorescence enhancement of MGD2 with 6×MGA-mGFP mRNA; type: binding
Description: as §1, §3

[2] = Fluorescence of MGD2 without any RNA in 1×PBS; type: physicochemical; settings: MGD2 without RNA in 1×PBS; 30 μM MGD2; ex=620±20 nm, em=680±20 nm
Description: as §3

[3] = test system: control mGFP mRNA that does not contain the aptamer sequence; assay: Effect of UV-irradiation on fluorescence of MGD2 with control mRNA; type: binding; settings: up to 15 minutes of UV-irradiation
Description: as §2, §3

[4] = test system: cellular RNA extracted from HeLa cells; assay: Determination of MGD2 selectivity in cellular RNA (agarose gel); type: biochemical; settings: 10 min UV
Description: To determine the selectivity of MGD2 labeling, 6MGA-mGFP (200 ng) was spiked in into cellular RNA extracted from HeLa cells (400 ng) in 1×PBS. […] After 10 min of UV irradiation, the sample was mixed with equal volume of 50% glycerol solution and heated to 70° C. to denature the RNA. This sample was loaded on to 1% agarose gel containing 1% v/v Clorox® bleach2 and Sybr Gold™. After running the gel for 1 h at a constant 100 V, the gel was frozen with dry ice for 10 min and imaged using GE Amersham Typhoon™. This freezing step enhanced the fluorescence output of the malachite green molecule.
Experiments were performed to determine whether this would create problematic background signal during imaging. […] The collective observations from these experiments served as guidelines for irradiation time and dye concentrations used in subsequent cellular labeling experiments.

Neuro-2a cells [5] = assay: Fixed-cell imaging of MGA-functionalized mCDK6 in stress granules; type: cell-based, Mouse
Excerpt: Fixed cell experiments enable direct comparisons to FISH and validate labeling of the target RNA in cells. As a biological context for testing the labeling method, stress granules were selected. In response to stress conditions, cells form non-membrane-bound cytosolic […] RNA-protein assemblies to stall the translation of mRNA until the cells are no longer under stress. While most mRNAs can be concentrated to stress granules, different mRNAs have vastly distinct localization efficiencies. Using FISH, experiments indicate that the CDK6 mRNA is highly enriched in stress granules of mammalian cells CDK6 was used as a model system to fluorescently label and image the unique distribution pattern of the mRNA. Both the 6× and 1×MGA sequences were inserted at the 5′ end of the transcript, and the construct was placed under the control of the cytomegalovirus (CMV) promoter (FIG. 2A). Mouse neuroblastoma Neuro-2a cells were then transfected with these plasmids and incubated with 30 μM MGD2 for 20 min. The cells were then irradiated using 365 nm UV light to allow for covalent labeling of the aptamer. The media was replaced to washout excess dye, and cell stress conditions were induced by 45 min of arsenite exposure, a well characterized paradigm to induce formation of stress granules. Following fixation and immunofluorescence labeling of the stress granule marker protein (G3BP1), the cells were imaged using confocal microscopy.
To validate that the fluorescence signal observed was arising from labeling of the target CDK6 mRNA, the Neuro-2a cells were simultaneously incubated with FISH probes complementary to the CDK6 sequence but bearing a spectrally orthogonal fluorophore. This experiment also enabled us to directly compare the sensitivity of the MGA/MGD2 system to the commonly used FISH technique for RNA labeling in fixed cells. Following arsenite stress, MGD2 labeling, and cell fixation, the cells were incubated with our custom FISH probes. […] That may be because during FISH labeling, the fluorescent probe is hybridized after the RNA of interest is localized to granules. […]

[6] = 1×MGA-mGFP in the presence of MGD2
[7] = 6×MGA-mGFP in the presence of MGD2
[8] = 6MGA-mGFP 200 ng in 400 ng HeLa RNA, MGD2 50 μM

Row | emission maximum (1×MGA-mGFP; [6]) [nm] | excitation maximum (1×MGA-mGFP; [6]) [nm] | emission maximum (6×MGA-mGFP; [7]) [nm] | excitation maximum (6×MGA-mGFP; [7]) [nm] | Structure (SMILES) | effect on RNA granules (Neuro-2a cells [1]; 5% 1,6-hexanediol, labeled 1×MGA-mCDK6) | incubation time after which signal from the protein granules disappeared (Neuro-2a cells [1]; 5% hexanediol, after arsenite-induced stress granule formation) [min] | fluorescence enhancement after UV irradiation (1×MGA-mGFP; 1×MGA-mGFP, after 15 minutes of UV irradiation (stabilized)) | fluorescence enhancement (1×MGA-mGFP; MGD2 bound to 1×MGA-mGFP, prior to UV-irradiation) [fold] | fluorescence enhancement (6×MGA-mGFP; MGD2 bound to 6×MGA-mGFP, prior to UV-irradiation) [fold] | fluorescence output (mean) [2] | fluorescence enhancement with control mRNA [3] | labeling of aptamer functionalized mRNA spiked into cellular RNA [4, 8] | labeling of cellular RNA [4, 8] | labeling of other cellular RNAs (bands in the MG channel) ([4]; MGD2 30 μM with 6×MGA-mGFP in presence of cellular RNA) | difference in fluorescence intensity of cytoplasmic mRNA granules, 1×MGA versus 6×MGA (Neuro-2a cells [5]; 1×MGA reduced versus 6×MGA-functionalized mRNA) [fold] | sensitivity of RNA detection compared with FISH (Neuro-2a cells [5]; 1×MGA- and 6×MGA-functionalized mRNAs, FISH probes complementary to CDK6) | labeling in control cells (Neuro-2a cells [5]; cells transfected with CDK6 lacking the MGA sequence, MGD2 and UV irradiation)
1 |  |  |  |  | OCCCCCCO [1,6-hexanediol] | most of the RNA granules exhibited a more sustained structural integrity | 7 |  |  |  |  |  |  |  |  |  |  | 
2 | 660 | 625 | 660 | 625 | CN(C)c1ccc(C(=C2C=CC(=[N+](C)C)C=C2)c2ccc(NC(=O)CCC3(C)N=N3)cc2)cc1 [MGD2, N-(4-((4-(dimethylamino)phenyl)(4-(3-(3-methyl-3H-diazirin-3-yl) Propan amido)phenyl)methylene)cyclohexa-2,5-dien-1-ylidene)-N-methylmethanaminium Chloride] |  |  | approximately 140 fold | 251 | > 1000 | 6.25 | did not result in any detectable fluorescence enhancement | selectively labeled the aptamer functionalized mRNA | did not have any detectable labeling of cellular RNA | no bands from labeling of other cellular RNAs | ~2 | higher sensitivity for RNA detection than FISH | did not show any labeling
